{"source": "PubChem BioAssay (NCI)", "experiment_in_all_cases": "NCI anticancer screen, dose series, 48 h", "key": {"BT-549 breast": {"tested_on": "BT-549 breast"}, "LOX IMVI melanoma": {"tested_on": "LOX IMVI melanoma"}, "HT29 colon": {"tested_on": "HT29 colon"}, "HCC-2998 colon": {"tested_on": "HCC-2998 colon"}, "NCI-H522 lung": {"tested_on": "NCI-H522 lung"}, "MDA-MB-468 breast": {"tested_on": "MDA-MB-468 breast"}, "OVCAR-5 ovarian": {"tested_on": "OVCAR-5 ovarian"}, "HL-60(TB) leukemia": {"tested_on": "HL-60(TB) leukemia"}, "HCT-116 colon": {"tested_on": "HCT-116 colon"}, "SF-539 CNS": {"tested_on": "SF-539 CNS"}, "UACC-62 melanoma": {"tested_on": "UACC-62 melanoma"}, "NCI-H23 lung": {"tested_on": "NCI-H23 lung"}, "COLO 205 colon": {"tested_on": "COLO 205 colon"}, "KM12 colon": {"tested_on": "KM12 colon"}, "DU-145 prostate": {"tested_on": "DU-145 prostate"}, "U251 CNS": {"tested_on": "U251 CNS"}, "NCI-H460 lung": {"tested_on": "NCI-H460 lung"}, "RPMI-8226 leukemia": {"tested_on": "RPMI-8226 leukemia"}, "UACC-257 melanoma": {"tested_on": "UACC-257 melanoma"}, "NCI-H226 lung": {"tested_on": "NCI-H226 lung"}, "NCI/ADR-RES ovarian": {"tested_on": "NCI/ADR-RES ovarian"}, "SF-268 CNS": {"tested_on": "SF-268 CNS"}, "HS 578T breast": {"tested_on": "HS 578T breast"}, "OVCAR-3 ovarian": {"tested_on": "OVCAR-3 ovarian"}, "K-562 leukemia": {"tested_on": "K-562 leukemia"}, "RXF 393 renal": {"tested_on": "RXF 393 renal"}, "SNB-19 CNS": {"tested_on": "SNB-19 CNS"}}, "note": "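Test compounds were applied to cells in 96-well plates for 48 hours at 5 doses. GI50 = concentration required for 50% inhibition of growth. TGI is the concentration that stops growth completely.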"}
{"smiles": "CC[C@]12C=CCN3CC[C@@]4(c5ccc(OC)cc5N(C)[C@H]4[C@@](O)(C(=O)OC)[C@@H]1OC(=O)CCCC[P+](c1ccc(OC)cc1)(c1ccc(OC)cc1)c1ccc(OC)cc1)[C@@H]32", "values": [{"measurement": "TGI", "setting": "BT-549 breast", "value": 2600, "unit": "nM"}, {"measurement": "GI50", "setting": "LOX IMVI melanoma", "value": 1110, "unit": "nM"}, {"measurement": "TGI", "setting": "LOX IMVI melanoma", "value": 2350, "unit": "nM"}, {"measurement": "GI50", "setting": "HT29 colon", "value": 511, "unit": "nM"}, {"measurement": "TGI", "setting": "HT29 colon", "value": 2020, "unit": "nM"}, {"measurement": "GI50", "setting": "HCC-2998 colon", "value": 617, "unit": "nM"}, {"measurement": "TGI", "setting": "HCC-2998 colon", "value": 1850, "unit": "nM"}, {"measurement": "GI50", "setting": "NCI-H522 lung", "value": 341, "unit": "nM"}, {"measurement": "TGI", "setting": "NCI-H522 lung", "value": 1250, "unit": "nM"}, {"measurement": "GI50", "setting": "MDA-MB-468 breast", "value": 264, "unit": "nM"}, {"measurement": "TGI", "setting": "MDA-MB-468 breast", "value": 799, "unit": "nM"}, {"measurement": "GI50", "setting": "OVCAR-5 ovarian", "value": 2130, "unit": "nM"}, {"measurement": "TGI", "setting": "OVCAR-5 ovarian", "value": 7150, "unit": "nM"}, {"measurement": "GI50", "setting": "HL-60(TB) leukemia", "value": 234, "unit": "nM"}, {"measurement": "TGI", "setting": "HL-60(TB) leukemia", "value": 674, "unit": "nM"}, {"measurement": "GI50", "setting": "HCT-116 colon", "value": 1300, "unit": "nM"}, {"measurement": "TGI", "setting": "HCT-116 colon", "value": 7760, "unit": "nM"}, {"measurement": "GI50", "setting": "SF-539 CNS", "value": 1520, "unit": "nM"}, {"measurement": "TGI", "setting": "SF-539 CNS", "value": 5440, "unit": "nM"}, {"measurement": "GI50", "setting": "UACC-62 melanoma", "value": 963, "unit": "nM"}, {"measurement": "TGI", "setting": "UACC-62 melanoma", "value": 2200, "unit": "nM"}, {"measurement": "GI50", "setting": "NCI-H23 lung", "value": 1190, "unit": "nM"}, {"measurement": "TGI", "setting": "NCI-H23 lung", "value": 4740, "unit": "nM"}, {"measurement": "GI50", "setting": "COLO 205 colon", "value": 214, "unit": "nM"}, {"measurement": "TGI", "setting": "COLO 205 colon", "value": 450, "unit": "nM"}, {"measurement": "GI50", "setting": "KM12 colon", "value": 675, "unit": "nM"}, {"measurement": "TGI", "setting": "KM12 colon", "value": 1990, "unit": "nM"}, {"measurement": "GI50", "setting": "DU-145 prostate", "value": 1600, "unit": "nM"}, {"measurement": "TGI", "setting": "DU-145 prostate", "value": 12300, "unit": "nM"}, {"measurement": "GI50", "setting": "U251 CNS", "value": 392, "unit": "nM"}, {"measurement": "TGI", "setting": "U251 CNS", "value": 1450, "unit": "nM"}, {"measurement": "GI50", "setting": "NCI-H460 lung", "value": 1150, "unit": "nM"}, {"measurement": "TGI", "setting": "NCI-H460 lung", "value": 11200, "unit": "nM"}, {"measurement": "GI50", "setting": "RPMI-8226 leukemia", "value": 299, "unit": "nM"}, {"measurement": "TGI", "setting": "RPMI-8226 leukemia", "value": 969, "unit": "nM"}, {"measurement": "GI50", "setting": "UACC-257 melanoma", "value": 792, "unit": "nM"}, {"measurement": "TGI", "setting": "UACC-257 melanoma", "value": 2310, "unit": "nM"}, {"measurement": "GI50", "setting": "NCI-H226 lung", "value": 2030, "unit": "nM"}, {"measurement": "TGI", "setting": "NCI-H226 lung", "value": 7490, "unit": "nM"}, {"measurement": "GI50", "setting": "NCI/ADR-RES ovarian", "value": 20500, "unit": "nM"}, {"measurement": "TGI", "setting": "NCI/ADR-RES ovarian", "value": 55900, "unit": "nM"}, {"measurement": "GI50", "setting": "SF-268 CNS", "value": 1470, "unit": "nM"}, {"measurement": "TGI", "setting": "SF-268 CNS", "value": 3490, "unit": "nM"}, {"measurement": "GI50", "setting": "HS 578T breast", "value": 1510, "unit": "nM"}, {"measurement": "TGI", "setting": "HS 578T breast", "value": 4990, "unit": "nM"}, {"measurement": "GI50", "setting": "OVCAR-3 ovarian", "value": 634, "unit": "nM"}, {"measurement": "TGI", "setting": "OVCAR-3 ovarian", "value": 2330, "unit": "nM"}, {"measurement": "GI50", "setting": "K-562 leukemia", "value": 675, "unit": "nM"}, {"measurement": "TGI", "setting": "K-562 leukemia", "value": 2530, "unit": "nM"}, {"measurement": "GI50", "setting": "RXF 393 renal", "value": 524, "unit": "nM"}, {"measurement": "TGI", "setting": "RXF 393 renal", "value": 2040, "unit": "nM"}, {"measurement": "GI50", "setting": "SNB-19 CNS", "value": 484, "unit": "nM"}, {"measurement": "TGI", "setting": "SNB-19 CNS", "value": 1950, "unit": "nM"}]}
